From ChEMBL document CHEMBL3885861, “Open TG-GATES”

Species: Rattus norvegicus
Assay: Open TG-GATES - Regimen: Daily Repeat
Assay type: toxicity, organism-based, Sprague-Dawley
Set-up: regimen Daily Repeat, gender Male, age 6 weeks
Details: in vivo, po, route gavage; for APTT / Bas / Eos / Fbg / Hb / Ht / Lym / MCH / MCHC / MCV / Mono / Neu / PT / Plat / RBC / Ret / WBC: tissue Blood; for KIDNEY_L / KIDNEY_R / KIDNEY_TOTAL: tissue Kidney; for LIVER: tissue Liver; for A/G / ALP / ALT / AST / BUN / CRE / Ca / Cl / DBIL / GLC / IP / K / LDH / Na / PL / RALB / TBIL / TC / TG / TP / gamma-GTP: tissue Plasma
[1] = 30 mg/kg, 72 h, dose level Middle, time 3 day
[2] = 30 mg/kg, […], dose level Middle, time 7 day
[3] = 30 mg/kg, […], dose level Middle, time 14 day
[4] = 30 mg/kg, […], dose level Middle, time 28 day
[5] = 100 mg/kg, 72 h, dose level High, time 3 day
[6] = 100 mg/kg, […], dose level High, time 7 day
[7] = 100 mg/kg, […], dose level High, time 14 day
[8] = 100 mg/kg, […], dose level High, time 28 day

## NC(=O)N/N=C/c1ccc([N+](=O)[O-])o1 [NITROFURAZONE]
[1]
  TERMINAL_BW: 221 g
  APTT: 15.2 s
  Bas: 0%
  Eos: 0.8%
  Fbg: 285 mg/dL
  Hb: 12.7 g/dL
  Ht: 38.3%
  Lym: 78.8%
  MCH: 21.6 pg
  MCHC: 33.2%
  MCV: 65 fL
  Mono: 3.2%
  Neu: 16.6%
  PT: 14.2 s
  Plat: 119.4 x10_4/uL
  RBC: 589.8 x10_4/ul
  Ret: 8.5%
  WBC: 86.5 x10_2/uL
  KIDNEY_L: 1 g
  KIDNEY_R: 0.9 g
  KIDNEY_TOTAL: 1.9 g
  LIVER: 11.3 g
  A/G: 0.9
  ALP: 1653.2 IU/L
  ALT: 46.2 IU/L
  AST: 70 IU/L
  BUN: 15.4 mg/dL
  CRE: 0.2 mg/dL
  Ca: 11.4 mg/dL
  Cl: 104.2 meq/L
  DBIL: 0.016 mg/dL
  GLC: 182 mg/dL
  IP: 8 mg/dL
  K: 4.4 meq/L
  LDH: 113.2 IU/L
  Na: 140.6 meq/L
  PL: 164.4 mg/dL
  RALB: 2.5 g/dL
  TBIL: 0.048 mg/dL
  TC: 91.4 mg/dL
  TG: 98.6 mg/dL
  TP: 5.5 g/dL
  gamma-GTP: 1 IU/L
[2]
  TERMINAL_BW: 259.6 g
  APTT: 16.5 s
  Bas: 0%
  Eos: 1%
  Fbg: 267 mg/dL
  Hb: 13.2 g/dL
  Ht: 39.5%
  Lym: 76%
  MCH: 21.1 pg
  MCHC: 33.5%
  MCV: 63.1 fL
  Mono: 2.6%
  Neu: 20.2%
  PT: 14.3 s
  Plat: 120.3 x10_4/uL
  RBC: 625.8 x10_4/ul
  Ret: 7.3%
  WBC: 103.6 x10_2/uL
  KIDNEY_L: 1.1 g
  KIDNEY_R: 1.2 g
  KIDNEY_TOTAL: 2.3 g
  LIVER: 13.3 g
  A/G: 0.8
  ALP: 1619 IU/L
  ALT: 41 IU/L
  AST: 62.6 IU/L
  BUN: 13.8 mg/dL
  CRE: 0.2 mg/dL
  Ca: 11.2 mg/dL
  Cl: 103.6 meq/L
  DBIL: 0.016 mg/dL
  GLC: 181.8 mg/dL
  IP: 7.7 mg/dL
  K: 3.8 meq/L
  LDH: 90.2 IU/L
  Na: 141.8 meq/L
  PL: 155.8 mg/dL
  RALB: 2.6 g/dL
  TBIL: 0.048 mg/dL
  TC: 77.6 mg/dL
  TG: 117.4 mg/dL
  TP: 5.8 g/dL
  gamma-GTP: 1 IU/L
[3]
  TERMINAL_BW: 325.5 g
  APTT: 14.3 s
  Bas: 0%
  Eos: 0.8%
  Fbg: 308.8 mg/dL
  Hb: 13.5 g/dL
  Ht: 41.1%
  Lym: 81.8%
  MCH: 20.8 pg
  MCHC: 32.9%
  MCV: 63.2 fL
  Mono: 2.4%
  Neu: 14.2%
  PT: 14.4 s
  Plat: 117.9 x10_4/uL
  RBC: 650.8 x10_4/ul
  Ret: 6.1%
  WBC: 78.6 x10_2/uL
  KIDNEY_L: 1.3 g
  KIDNEY_R: 1.3 g
  KIDNEY_TOTAL: 2.6 g
  LIVER: 17 g
  A/G: 0.8
  ALP: 1501.8 IU/L
  ALT: 41.8 IU/L
  AST: 63.6 IU/L
  BUN: 18 mg/dL
  CRE: 0.2 mg/dL
  Ca: 11.1 mg/dL
  Cl: 103.6 meq/L
  DBIL: 0.014 mg/dL
  GLC: 193.4 mg/dL
  IP: 7.7 mg/dL
  K: 4.1 meq/L
  LDH: 89.8 IU/L
  Na: 142.2 meq/L
  PL: 169.2 mg/dL
  RALB: 2.8 g/dL
  TBIL: 0.05 mg/dL
  TC: 87.2 mg/dL
  TG: 107.6 mg/dL
  TP: 6.1 g/dL
  gamma-GTP: 1 IU/L
[4]
  TERMINAL_BW: 410.1 g
  APTT: 15.7 s
  Bas: 0.2%
  Eos: 1%
  Fbg: 294 mg/dL
  Hb: 14.3 g/dL
  Ht: 42.2%
  Lym: 82.8%
  MCH: 19.7 pg
  MCHC: 33.8%
  MCV: 58.2 fL
  Mono: 2%
  Neu: 13.6%
  PT: 14.3 s
  Plat: 99 x10_4/uL
  RBC: 727.8 x10_4/ul
  Ret: 4.2%
  WBC: 114.5 x10_2/uL
  KIDNEY_L: 1.6 g
  KIDNEY_R: 1.6 g
  KIDNEY_TOTAL: 3.3 g
  LIVER: 19 g
  A/G: 0.8
  ALP: 1102.6 IU/L
  ALT: 38 IU/L
  AST: 56.4 IU/L
  BUN: 16.4 mg/dL
  CRE: 0.2 mg/dL
  Ca: 10.7 mg/dL
  Cl: 103.2 meq/L
  DBIL: 0.012 mg/dL
  GLC: 182.4 mg/dL
  IP: 7.1 mg/dL
  K: 3.8 meq/L
  LDH: 43.2 IU/L
  Na: 142.8 meq/L
  PL: 163.8 mg/dL
  RALB: 2.8 g/dL
  TBIL: 0.076 mg/dL
  TC: 80.2 mg/dL
  TG: 104.4 mg/dL
  TP: 6.1 g/dL
  gamma-GTP: 1 IU/L
[5]
  TERMINAL_BW: 206.6 g
  APTT: 15 s
  Bas: 0%
  Eos: 1%
  Fbg: 297 mg/dL
  Hb: 12.7 g/dL
  Ht: 38.8%
  Lym: 83.6%
  MCH: 21.5 pg
  MCHC: 32.8%
  MCV: 65.6 fL
  Mono: 2.8%
  Neu: 11.6%
  PT: 14.6 s
  Plat: 102.7 x10_4/uL
  RBC: 593 x10_4/ul
  Ret: 7%
  WBC: 86.2 x10_2/uL
  KIDNEY_L: 0.9 g
  KIDNEY_R: 1 g
  KIDNEY_TOTAL: 1.9 g
  LIVER: 10.9 g
  A/G: 0.9
  ALP: 1305.8 IU/L
  ALT: 41.4 IU/L
  AST: 71.4 IU/L
  BUN: 16 mg/dL
  CRE: 0.2 mg/dL
  Ca: 11 mg/dL
  Cl: 104 meq/L
  DBIL: 0.016 mg/dL
  GLC: 176.4 mg/dL
  IP: 7.8 mg/dL
  K: 4.5 meq/L
  LDH: 67.6 IU/L
  Na: 141 meq/L
  PL: 154.8 mg/dL
  RALB: 2.6 g/dL
  TBIL: 0.068 mg/dL
  TC: 89.6 mg/dL
  TG: 66.8 mg/dL
  TP: 5.5 g/dL
  gamma-GTP: 1 IU/L
[6]
  TERMINAL_BW: 222.5 g
  APTT: 16 s
  Bas: 0%
  Eos: 0.8%
  Fbg: 271.8 mg/dL
  Hb: 13.2 g/dL
  Ht: 38.8%
  Lym: 85.2%
  MCH: 20.6 pg
  MCHC: 34.1%
  MCV: 60.3 fL
  Mono: 2.5%
  Neu: 10.2%
  PT: 14.5 s
  Plat: 106.2 x10_4/uL
  RBC: 643 x10_4/ul
  Ret: 5.5%
  WBC: 113.2 x10_2/uL
  KIDNEY_L: 1.1 g
  KIDNEY_R: 1 g
  KIDNEY_TOTAL: 2.1 g
  LIVER: 11.4 g
  A/G: 0.9
  ALP: 1211 IU/L
  ALT: 32.2 IU/L
  AST: 56.8 IU/L
  BUN: 14 mg/dL
  CRE: 0.2 mg/dL
  Ca: 11 mg/dL
  Cl: 102.5 meq/L
  DBIL: 0.015 mg/dL
  GLC: 162.2 mg/dL
  IP: 7.4 mg/dL
  K: 3.9 meq/L
  LDH: 55 IU/L
  Na: 141.2 meq/L
  PL: 146.8 mg/dL
  RALB: 2.6 g/dL
  TBIL: 0.055 mg/dL
  TC: 87 mg/dL
  TG: 39.5 mg/dL
  TP: 5.6 g/dL
  gamma-GTP: 1 IU/L
[7]
  TERMINAL_BW: 223.7 g
  APTT: 15.4 s
  Bas: 0.2%
  Eos: 0.8%
  Fbg: 318.8 mg/dL
  Hb: 14.1 g/dL
  Ht: 41.5%
  Lym: 86.8%
  MCH: 19.7 pg
  MCHC: 34%
  MCV: 57.9 fL
  Mono: 2.6%
  Neu: 8.8%
  PT: 15.1 s
  Plat: 121 x10_4/uL
  RBC: 720 x10_4/ul
  Ret: 3.8%
  WBC: 108.8 x10_2/uL
  KIDNEY_L: 1.1 g
  KIDNEY_R: 1.1 g
  KIDNEY_TOTAL: 2.2 g
  LIVER: 10.8 g
  A/G: 0.9
  ALP: 975.2 IU/L
  ALT: 27.2 IU/L
  AST: 86.4 IU/L
  BUN: 17.8 mg/dL
  CRE: 0.2 mg/dL
  Ca: 10.5 mg/dL
  Cl: 104.8 meq/L
  DBIL: 0.02 mg/dL
  GLC: 150.2 mg/dL
  IP: 7.9 mg/dL
  K: 3.7 meq/L
  LDH: 99.2 IU/L
  Na: 144 meq/L
  PL: 138.6 mg/dL
  RALB: 2.7 g/dL
  TBIL: 0.078 mg/dL
  TC: 92.6 mg/dL
  TG: 34.6 mg/dL
  TP: 5.9 g/dL
  gamma-GTP: 1.2 IU/L
[8]
  TERMINAL_BW: 311.4 g
  APTT: 16.6 s
  Bas: 0.2%
  Eos: 1%
  Fbg: 368.6 mg/dL
  Hb: 13.9 g/dL
  Ht: 41.3%
  Lym: 85.8%
  MCH: 19.4 pg
  MCHC: 33.5%
  MCV: 57.9 fL
  Mono: 2.8%
  Neu: 9.2%
  PT: 14.3 s
  Plat: 107.6 x10_4/uL
  RBC: 714.8 x10_4/ul
  Ret: 3.8%
  WBC: 116.7 x10_2/uL
  KIDNEY_L: 1.5 g
  KIDNEY_R: 1.5 g
  KIDNEY_TOTAL: 3 g
  LIVER: 14.2 g
  A/G: 0.8
  ALP: 579.8 IU/L
  ALT: 21 IU/L
  AST: 58.6 IU/L
  BUN: 14.8 mg/dL
  CRE: 0.2 mg/dL
  Ca: 10 mg/dL
  Cl: 103.4 meq/L
  DBIL: 0.016 mg/dL
  GLC: 144.6 mg/dL
  IP: 7.5 mg/dL
  K: 3.6 meq/L
  LDH: 51.2 IU/L
  Na: 144.6 meq/L
  PL: 149.6 mg/dL
  RALB: 2.8 g/dL
  TBIL: 0.096 mg/dL
  TC: 104.2 mg/dL
  TG: 36 mg/dL
  TP: 6.2 g/dL
  gamma-GTP: 1.2 IU/L
